The text below walks through data of patent US3983120A, “Process for the preparation of optionally substituted 1,2,3,5-tetrahydroimidazo[2,1-b]quinazolin-2-ones” (Bristol-Myers Company, priority 1974, dated 1976).

Test [1] concerns ADP-induced aggregation of blood platelet-rich plasma. The test is described as follows: In Vivo/In Vitro platelet aggregation (ADP) after I.P. dosing of rabbits. The conditions noted are these: Oryctolagus cuniculus, ip, 2 h, dose for 50% inhibition of aggregation, one to two hours after dosing. As for the experimental part:
(§1) *In vivo/In vitro testing:
(§2) Before dosing the animals, blood samples are taken. The blood is centrifuged to obtain the blood platelet-rich plasma. Aggregation of this plasma is induced with ADP or collagen. This is the control.
(§3) The animals are then dosed with the compounds to be tested (orally or parenterally). Depending upon the route of administration, one to two hours are allowed to elapse after dosing. Blood is drawn and the same procedure employed as for the control is untreated animals.
The dose required to produce 50% inhibition of the aggregation is determined by dose response data obtained in this manner.

The test system is the same in test [2]. The test is described as follows: In Vivo/In Vitro platelet aggregation (ADP) after P.O. dosing of dogs. To be noted: one to two hours after dosing. On the procedure: as §1, §2, §3
The conditions of test [3]: literature, in words; cited from earlier work.

The molecule `CC1c2ccccc2N=C2NC(=O)CN21` (stereo not drawn) [Compound 29] came in with an ED50 in test [1] of 7 mg/kg. Also, the “In Vivo/In Vitro Dogs P.O. 5 mg./kg. ADP % Inhibition” value in test [2] is reported as 35%.

On to `c1ccc2c(c1)CN1CCNC1=N2` [SPC2], for which the “antihypertensive / hypotensive activity of prior art compounds” value in test [3] is “potent antihypertensive activity in rats, dogs, cats and rabbits”.
